Entries after “also recorded” stand apart in the source; their conditions may differ.
Tested on: ocular hypertensive monkeys
Assay: Intraocular pressure-lowering effect in laser-induced ocular hypertensive monkeys
Type: in vivo, Macaca fascicularis
Details: 0.01 w/v% solution
Procedure: To investigate the usefulness of the present compound A, an intraocular pressure-lowering effect of the present compound A was tested in experimental animals (ocular hypertensive monkeys). Regarding test solutions, a reference solution not containing the present compound A was used as a control, a solution containing the present compound A was prepared as Example 1 of the invention of the present application, and a latanoprost eye drop was prepared as Comparative Example 1, as shown below.
To 1.7 g of polyoxyl 35 castor oil, 10 mL of a 0.5% (w/v) disodium edetate/10% (w/v) glycerin solution, 1 mL of a 1% (w/v) benzalkonium chloride solution, 30 mL of purified water, and 50 mL of a 2% (w/v) boric acid/0.2% (w/v) sorbic acid solution were added and dissolved therein. […]
(2) The intraocular pressure was measured immediately before instillation of one of the test solutions (the above-described control, Example 1, and Comparative Example 1), and employed as the initial intraocular pressure. […]
(4) After 2 hours, 4 hours, and 6 hours had passed from the instillation of the test solution, one drop of the 0.4% oxybuprocaine hydrochloride eye drop was instilled for local anesthesia to the eye whose intraocular pressure was to be measured, and then the intraocular pressure was measured. In addition, the intraocular pressure was measured three times, and the average value was shown in the results. […]

CC(C)OC(=O)CNc1cccc(CN(Cc2ccc(-n3cccn3)cc2)S(=O)(=O)c2cccnc2)n1 [present compound A, isopropyl (6-{ [4-(pyrazol-1-yl)benzyl] (pyridin-3-ylsulfonyl)aminomethyl}pyridin-2-ylamino)acetate]
intraocular pressure-lowering activity (in words): larger than that in the latanoprost-treated group; also recorded: rapidly provided an excellent intraocular pressure-lowering effect | time after administration by which excellent intraocular pressure-lowering activity was exhibited: ≤ 2 h

Reference: patent publication US20200206200A1, “PROPHYLACTIC AND/OR THERAPEUTIC AGENT CONTAINING PYRIDYLAMINOACETIC ACID COMPOUND” (priority 2015, published 2020)
